Test results from patent publication US10392630B2, “Plants having increased tolerance to herbicides” (BASF AGRO B.V., priority 2013, dated 2019).
Where two headings read alike, the source gives them in different places.

Key:
[1] = tested on: Alopecurus wildtype PPO (ALOMY), PPO herbicide sensitive PPO2, SEQ ID NO 2; experiment: PPO enzyme assay, dose-response (fluorescence), wildtype Alopecurus PPO2; assay type: biochemical, Alopecurus myosuroides; details: Table 3b; SEQ ID NO 2, WT
[2] = target: Alopecurus mutant PPO (ALOMY), SEQ ID NO 2 with amino acid substitution; experiment: PPO enzyme assay, dose-response (fluorescence), mutated Alopecurus PPO2; assay type: biochemical, Alopecurus myosuroides

Row | Compound | IC50 [1] | other results
1 | C#CCN1C(=O)C(F)(F)Oc2cc(F)c(N3C(=O)C4=C(CCCC4)C3=O)cc21 [2-(2,2,7-trifluoro-3-oxo-4-prop-2-ynyl-1,4-benzoxazin-6-yl)-4,5,6,7-tetrahydroisoindole-1,3-dione] | 0.243 nM | 
2 | CS(=O)(=O)NC(=O)c1cc(Oc2ccc(C(F)(F)F)cc2Cl)ccc1[N+](=O)[O-] [FOMESAFEN] | 90.3 nM | 
3 | CCOC(=O)C(C)OC(=O)c1cc(Oc2ccc(C(F)(F)F)cc2Cl)ccc1[N+](=O)[O-] (stereo not drawn) [LACTOFEN, (2-ethoxy-1-methyl-2-oxo-ethyl) 5-[2-chloro-4-(trifluoromethyl)phenoxy]-2-nitro-benzoate] | 18.7 nM | 
4 | CCOC(=O)C(Cl)Cc1cc(-n2nc(C)n(C(F)F)c2=O)c(F)cc1Cl (stereo not drawn) [CARFENTRAZONE-ETHYL] | 1.47 nM | 
5 | C#CCN1C(=O)COc2cc(F)c(N3C(=O)C4=C(CCCC4)C3=O)cc21 [FLUMIOXAZIN, 2-(7-fluoro-3-oxo-4-prop-2-ynyl-1,4-benzoxazin-6-yl)-4,5,6,7-tetrahydroisoindole-1,3-dione] | 0.144 nM | 
6 | C#CCN1C(=O)C(F)(F)Oc2cc(F)c(-n3c(=O)cc(C(F)(F)F)n(C)c3=O)cc21 [1-methyl-6-(trifluoromethyl)-3-(2,2,7-trifluoro-3-oxo-4-prop-2-ynyl-1,4-benzoxazin-6-yl)pyrimidine-2,4-dione] | 0.189 nM | 
7 | CCOC(=O)/C(Cl)=C/c1cc(N2C(=O)C3=C(CCCC3)C2=O)ccc1Cl [CINIDON-ETHYL, ethyl (Z)-2-chloro-3-[2-chloro-5-(1,3-dioxo-4,5,6,7-tetrahydroisoindol-2-yl)phenyl]prop-2-enoate] | 81.2 nM | 
8 | COC(Oc1ccccc1Oc1cc(-n2c(=O)cc(C(F)(F)F)n(C)c2=O)c(F)cc1Cl)C(=O)OCC(F)F (stereo not drawn) [2,2-difluoroethyl 2-[2-[2-chloro-4-fluoro-5-[3-methyl-2,6-dioxo-4-(trifluoromethyl)pyrimidin-1-yl]phenoxy]phenoxy]-2-methoxy-acetate] | 0.335 nM | 
9 | CCOc1cc(Oc2ccc(C(F)(F)F)cc2Cl)ccc1[N+](=O)[O-] [OXIFLUORFEN, 2-CHLORO-1-(3-ETHOXY-4-NITROPHENOXY)-4-(TRIFLUOROMETHYL)BENZENE] | 8.24 nM | 
10 | CCOC(=O)COc1ncccc1Oc1cc(-n2c(=O)cc(C(F)(F)F)n(C)c2=O)c(F)cc1Cl [S-3100, ethyl 2-[[3-[2-chloro-4-fluoro-5-[3-methyl-2,6-dioxo-4-(trifluoromethyl)pyrimidin-1-yl]phenoxy]-2-pyridyl]oxy]acetate] | 0.0645 nM | IC50 [2]: 950 nM; IC50 ([2]; listed as S-3101): 0.552 nM; IC50 ([2]; listed as S-3102): 2.37 nM; IC50 ([2]; listed as S-3103): 992 nM; IC50 ([2]; listed as S-3104): 12.1 nM
11 | COC(=O)C(OC)Oc1ccccc1Oc1cc(-n2c(=O)cc(C(F)(F)F)n(C)c2=O)c(F)cc1Cl (stereo not drawn) [methyl 2-[2-[2-chloro-4-fluoro-5-[3-methyl-2,6-dioxo-4-(trifluoromethyl)pyrimidin-1-yl]phenoxy]phenoxy]-2-methoxy-acetate] | 0.194 nM | 
12 | CCOCCOC(=O)C(OC)Oc1ccccc1Oc1cc(-n2c(=O)cc(C(F)(F)F)n(C)c2=O)c(F)cc1Cl (stereo not drawn) [2-ethoxyethyl 2-[2-[2-chloro-4-fluoro-5-[3-methyl-2,6-dioxo-4-(trifluoromethyl)pyrimidin-1-yl]phenoxy]phenoxy]-2-methoxy-acetate] | 0.816 nM | 
13 | COC(Oc1ccccc1Oc1cc(-n2c(=O)cc(C(F)(F)F)n(C)c2=O)c(F)cc1Cl)C(=O)OCc1ccncc1 (stereo not drawn) [4-pyridylmethyl 2-[2-[2-chloro-4-fluoro-5-[3-methyl-2,6-dioxo-4-(trifluoromethyl)pyrimidin-1-yl]phenoxy]phenoxy]-2-methoxy-acetate] | 0.671 nM | 
14 | C=CCOC(=O)C(C)(C)OC(=O)c1cc(-n2c(=O)cc(C(F)(F)F)n(C)c2=O)ccc1Cl [BUTAFENACIL] | 0.0131 nM | 
15 | COC(Oc1ccccc1Oc1cc(-n2c(=O)cc(C(F)(F)F)n(C)c2=O)c(F)cc1Cl)C(=O)OCC1(C)CC1 (stereo not drawn) [(1-methylcyclopropyl)methyl 2-[2-[2-chloro-4-fluoro-5-[3-methyl-2,6-dioxo-4-(trifluoromethyl)pyrimidin-1-yl]phenoxy]phenoxy]-2-methoxy-acetate] | 0.751 nM | 
16 | O=C(O)c1cc(Oc2ccc(C(F)(F)F)cc2Cl)ccc1[N+](=O)[O-] [ACIFLUORFEN, 5-(2-CHLORO-4-TRIFLUOROMETHYL-PHENOXY)-2-NITRO-BENZOIC ACID] | 1140 nM | IC50 [2]: ≥ 10000 nM
17 | OXADIARGYL | 1.17 nM | 
18 | COC(Oc1ccccc1Oc1cc(-n2c(=O)cc(C(F)(F)F)n(C)c2=O)c(F)cc1Cl)C(=O)OC1CCCCC1 (stereo not drawn) [cyclohexyl 2-[2-[2-chloro-4-fluoro-5-[3-methyl-2,6-dioxo-4-(trifluoromethyl)pyrimidin-1-yl]phenoxy]phenoxy]-2-methoxy-acetate] | 2.99 nM | 
